Results as given in patent EP0013784B1, “C-Substituted naphthalenemonosulfonic ureides, process for their preparation and pharmaceutical compositions containing them” (AMERICAN CYANAMID COMPANY, priority 1979, dated 1980).
Values joined by “and” are separate entries in the source; they are usually repeats but may differ in a detail not shown here. Identical values can stand only once. Counter-ions that a name gives are not always drawn. Like-named read-outs stand apart in the source and are kept apart here. Blank lines part the entries; values can stand above or below the compound they belong to.

Assays:
[1] = molecular target: T1, human skin fibroblast collagenase (Homo sapiens, UniProt P03956); assay: Collagenase Assay, Test Code 006 (degradation of 14C-labeled native collagen fibrils); type: biochemical; details: test conc.: 30 μg./ml.
T1 construct: endogenous in cells
T1 sequence (P03956 100-469): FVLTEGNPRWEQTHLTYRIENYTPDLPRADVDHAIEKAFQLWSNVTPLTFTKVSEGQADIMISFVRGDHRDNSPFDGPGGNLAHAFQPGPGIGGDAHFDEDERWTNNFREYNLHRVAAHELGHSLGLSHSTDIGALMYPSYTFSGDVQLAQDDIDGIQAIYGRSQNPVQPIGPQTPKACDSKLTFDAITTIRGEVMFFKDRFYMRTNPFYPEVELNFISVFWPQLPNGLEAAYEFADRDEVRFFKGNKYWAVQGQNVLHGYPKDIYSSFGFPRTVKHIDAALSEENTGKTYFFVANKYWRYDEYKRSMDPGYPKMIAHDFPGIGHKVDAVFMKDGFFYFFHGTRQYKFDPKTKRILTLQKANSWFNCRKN
Description: (§1) An active inhibitor would inhibit the degradation of the collagen fibril; (iii) Leukocyte Neutral Proteases Inhibitor Assay - This test measures the ability of neutral proteases derived from human leukocytes to degrade radiolabeled proteoglycans entrapped in polyacrylamide beads.
Collagenase assays were performed by a modification of the method of Harper, et al., Biochem.,-10, 3035 (1971). In a typical assay (total volume of 0.45 ml.), 100 pI. of the activated enzyme was added to the ^14C-labeled collagen fibrils (250 µl.) followed by 100 pl. of 50 mM cacodylate, pH 7.4, containing 5 mM calcium chloride. After incubation at 37°C. for 16 hours, the tubes were centrifuged in a Beckman microfuge for five minutes at full speed. An aliquot (200 pl.) of the supernatant, representing collagenase digestion products of the fibril, was assayed for radioactivity. […] Appropriate blanks and trypsin controls were run in parallel.
The activities are expressed as % inhibition (lowering) of collagenase activity, i.e. based on the 0% value for the enzyme control.

[2] = tested on: Gingival Crevicular Fluid Collagenase; assay: Crevicular Fluid Assay (gingival crevicular fluid collagenase degrading 14C-collagen fibrils); type: biochemical, human; details: Diseased crevicular fluid + 30 mcg./ml. of compound; about 90 hours at 37°C.; diseased fluid alone 66 ± 9; p<0.0005
Excerpt: as §1
Since studies by Golub, et al., Dental Res., 55, 1049 (1976) have shown that the crevicular collagenase plays a major role in the degradation of collagen in periodontal tissue, the effect of test compounds on collagen degradation by this system was examined. A volunteer with diagnosed periodontal disease was used. […] After one minute, the filter paper strip was removed and the volume of the gingival crevicular fluid was measured with the aid of the Periotron (Harco Electronics, Ltd., Winnipeg, Canada). The volume of the fluid gathered from the crevice by the filter paper strip is translated by a unique transducer onto a digital readout screen. […] After reading on the meter, 1 µl. of trypsin (1.5 µg./ml.) was added to the filter paper (to activate any latent collagenase present) and after five minutes at room temperature 1 pI. of aprotonin was added. […] The tubes were centrifuged as described above and a 200 µl. aliquot of the clear supernatant was assayed for radioactivity.

[3] = tested on: fibroblast collagenase and leukocyte neutral protease; assay: Enzymatic Degradation of Collagen of Human Gingiva (hydroxyproline content of residual tissue); type: biochemical; details: 36 hours at 37°C., enzymes alone 102.3
Description: The test compounds are able to inhibit the degradation of collagen of gingival tissue. Dried pieces of human gingiva were incubated at 37°C. for 36 hours with fibroblast collagenase and leukocyte neutral protease in the presence of test compound (30 and 50 µg./ml.). Antibiotics were present to prevent bacterial growth. After incubation, the residual tissue was hydrolyzed in 6N hydrochloric acid and the hydroxy-proline content (collagen) was determined. When collagenase and neutral protease were added to human gingiva, approximately 100 µg of collagen/mg. dry tissue was digested. If the test compound was present, degradation of gingival collagen was inhibited.

[4] = tested on: neutral proteases derived from human leukocytes; assay: Leukocyte Neutral Proteases Inhibitor Assay (3H/35S labeled proteoglycans entrapped in polyacrylamide beads); type: biochemical; details: for Percent Inhibition of Neutral Protease Activity ^3H: 3H label; for Percent Inhibition of Neutral Protease Activity ^35S: 35S label
Description: as §1
This assay system contained (total volume of 1 ml.) 60 mM Tris-CI, pH 7.4; 2.5 mM calcium chloride; 2.5 mM magnesium chloride; 2 mg. (dry weight) of polyacrylamide beads entrapped with labeled proteoglycans, and an aliquot of the leukocyte neutral protease preparation. The reaction mixture was incubated at 37°C. for 30 minutes in a shaking water bath. The reaction was terminated by the addition of 0.2 mi. of 5% SDS in 5% HCI (v/v). After five minutes at room temperature the mixture was centrifuged and the clear supernatant (0.6 ml.) was assayed for radioactivity. To determine the effect of the test compounds on degradation of proteoglycans by neutral proteases, various concentrations of the compounds were added to the reaction mixture. Appropriate blanks were included.

collagenase = details: as reported in Thromb. Res. 1977, 10(4), 605-11; cited from earlier work
[5] = compound in distilled water, 16 hours at 37°C., repeat determinations
[6] = compound in distilled water, 16 hours at 37°C., repeat determinations, read-out: % Inhibition of Collagenase
[7] = DMA = Dimethylacetamide, read-out: % Inhibition of Collagenase (DMA)

SMILES: O=C(Nc1ccc(C(=O)Nc2ccc3cc(S(=O)(=O)O)cc(O)c3c2)cc1)Nc1ccc(C(=O)Nc2ccc3cc(S(=O)(=O)O)cc(O)c3c2)cc1 [6,6'-[Ureylenebis(p-phenylenecarbonylimino)]bis[4-hydroxy-2-naphthalenesulfonic acid acid], disodium salt]
inhibition at 30 µg/mL [1, 7]: 96%
inhibition at 30 µg/mL [1, 6]: 86%

SMILES: O=C(Nc1ccc(C(=O)Nc2ccc3cc(S(=O)(=O)O)cc(O)c3c2)cc1)Nc1ccc(C(=O)Nc2ccc3cc(S(=O)(=O)O)cc(O)c3c2)cc1 [6,6-'Ureylenebis(p-phenylenecarbonylimino)bis[4-hydroxy-2-naphthalenesulfonic acid]-tetrasodium salt]
% Inhibition of Collagenase [1, 5]: 92%

SMILES: Cc1ccc(C(=O)Nc2ccc(S(=O)(=O)O)c3cc(S(=O)(=O)O)cc(S(=O)(=O)O)c23)cc1NC(=O)c1cccc(NC(=O)Nc2cccc(C(=O)Nc3cc(C(=O)Nc4ccc(S(=O)(=O)O)c5cc(S(=O)(=O)O)cc(S(=O)(=O)O)c45)ccc3C)c2)c1 [Suramin]
inhibition of the activity of collagenase (collagenase): not inhibiting the action of collagenase

SMILES: Cc1cc(-c2ccc(/N=N/c3c(S(=O)(=O)O)cc4cc(S(=O)(=O)O)cc(N)c4c3O)c(C)c2)ccc1/N=N/c1c(S(=O)(=O)O)cc2cc(S(=O)(=O)O)cc(N)c2c1O [trypan blue]
inhibition of the activity of collagenase (collagenase): inhibiting the activity of collagenase, or a proteinase contaminant in the collagenase preparation

Second part, led by results:

% Inhibition of Collagenase ([1]; compound in distilled water, 16 hours at 37°C., repeat determinations, disodium salt): 84% and 69% and 60% and 55%
SMILES: O=C(Nc1cccc(C(=O)Nc2ccc(S(=O)(=O)O)c3cccc(O)c23)c1)Nc1cccc(C(=O)Nc2ccc(S(=O)(=O)O)c3cccc(O)c23)c1 [4,4'-[Ureylenebis(m-phenylenecarbonylimino)]bis-5-hydroxy-1-2-naphthalen,3sulfonic acid, disodium salt]

cpm Collagen Degraded/Unit Periotron Reading [2]: 16 ± 6 cpm
% Inhibition of Collagenase [1, 5]: 92% and 69%
mcg. of Collagen degraded per mg. of dry gingiva ([3]; neutral proteases plus 30 mcg./ml. of compound): 60.4 mcg. per mg. of dry gingiva
mcg. of Collagen degraded per mg. of dry gingiva ([3]; neutral proteases plus 50 mcg./ml. of compound): 27.4 mcg. per mg. of dry gingiva
SMILES: O=C(Nc1cccc(C(=O)Nc2ccc3cc(S(=O)(=O)O)cc(O)c3c2)c1)Nc1cccc(C(=O)Nc2ccc3cc(S(=O)(=O)O)cc(O)c3c2)c1 [6,6'-[Ureylenebis(3,1-phenyl-enecarbonylimino)]bis[4-hydroxy] [6,6'-[Ureylenebis(m-phenylenecarbonylimino)]bis[4-hydroxy-2-naphthalenesulfonic acid]disodium salt]
Percent Inhibition of Neutral Protease Activity ^3H ([4]; 0.5 mcg./ml.): 0%
Percent Inhibition of Neutral Protease Activity ^35S ([4]; 0.5 mcg./ml.): 0%
Percent Inhibition of Neutral Protease Activity ^3H ([4]; 1.0 mcg./ml.): 17%
Percent Inhibition of Neutral Protease Activity ^35S ([4]; 1.0 mcg./ml.): 31%
Percent Inhibition of Neutral Protease Activity ^3H ([4]; 2.0 mcg./ml.): 21%
Percent Inhibition of Neutral Protease Activity ^35S ([4]; 2.0 mcg./ml.): 37%
Percent Inhibition of Neutral Protease Activity ^3H ([4]; 5.0 mcg./ml.): 47%
Percent Inhibition of Neutral Protease Activity ^35S ([4]; 5.0 mcg./ml.): 74%
Percent Inhibition of Neutral Protease Activity ^3H ([4]; 10.0 mcg./ml.): 63%
Percent Inhibition of Neutral Protease Activity ^35S ([4]; 10.0 mcg./ml.): 91%

inhibition at 30 µg/mL [1, 6]: 73%
SMILES: Cc1ccc(C(=O)Nc2ccc3cc(S(=O)(=O)O)cc(O)c3c2)cc1NC(=O)Nc1cc(C(=O)Nc2ccc3cc(S(=O)(=O)O)cc(O)c3c2)ccc1C [6,6'-[Ureylenebis(4-methyl-3,1-phenylene)carbonyliminolbis[4-hydroxy-2-naphthalenesulfonic acid]-disodium salt]

inhibition at 30 µg/mL [1, 7]: 81%
SMILES: O=C(Nc1cccc(C(=O)Nc2ccc3cc(S(=O)(=O)O)cc(O)c3c2)c1)Nc1cccc(C(=O)Nc2ccc3cc(S(=O)(=O)O)cc(O)c3c2)c1 [6,6'-[Ureylenebis(m-phenylenecarbonylimino)]bis[4-hydroxy-2-naphthalenesulfonic acid]disodium salt]
